Laboratory results reported in publication PMC10937199 (ESMO Open, 2024).

How the values were obtained:
[1] = tested on: patients with advanced solid tumors; assay: Safety; type: in vivo, human; conditions: Part B
advanced solid tumors [2] = assay: Best overall response per RECIST version 1.1, Part A; type: in vivo, human
advanced solid tumors [3] = assay: Best overall response per RECIST version 1.1, Part B; type: in vivo, human
[4] = Food effect on peposertib pharmacokinetics, Part FE; type: in vivo, human; conditions: after a single dose, sampling did not cover tmax
[5] = tested on: patients with advanced solid tumors; conditions: Part B, 100-250 mg q.d.
[6] = 50-mg film-coated hot melt extrudate tablets; estimated; cited from earlier work

COc1ccc([C@@H](O)c2cc(-c3ncnc4cc(N5CCOCC5)ccc34)c(F)cc2Cl)nn1 [Peposertib]
5 (55.6) n (%): TEAE, peposertib related ([1]; 250 mg q.d., all grade) | TEAE, radiotherapy related ([1]; 250 mg q.d., all grade)
11.1%: Peposertib-related pneumonitis ([1]; 250 mg q.d.)
2 (22.2) n (%): Immune-related AE ([1]; 250 mg q.d., all grade) | Serious TEAE, treatment related ([1]; 250 mg q.d., all grade) | Immune-related AE ([1]; 250 mg q.d., grade ≥3) | Serious TEAE, treatment related ([1]; 250 mg q.d., grade ≥3)
9 (100.0) n (%): TEAE ([1]; 250 mg q.d., all grade)
1 (25.0) n (%): Immune-related AE ([1]; 200 mg q.d., all grade) | Serious TEAE ([1]; 200 mg q.d., all grade) | Serious TEAE ([1]; 200 mg q.d., grade ≥3) | TEAE ([1]; 200 mg q.d., grade ≥3)
2 (50.0) n (%): IRR ([1]; 200 mg q.d., all grade) | TEAE, peposertib related ([1]; 200 mg q.d., all grade)
3 (15.8%): Peposertib-related TEAE: vomiting ([1]; all dose levels)
31.6%: Best overall response of stable disease (SD) or non-CR/non-PD (advanced solid tumors [3]; all dose levels)
food delayed peposertib Cmax: Effect of food on peposertib Cmax [4]
1 (11.1) n (%): Serious TEAE, peposertib related ([1]; 250 mg q.d., all grade) | Serious TEAE, radiotherapy related ([1]; 250 mg q.d., all grade) | IRR ([1]; 250 mg q.d., grade ≥3) | Serious TEAE, peposertib related ([1]; 250 mg q.d., grade ≥3) | Serious TEAE, radiotherapy related ([1]; 250 mg q.d., grade ≥3) | TEAE, peposertib related ([1]; 250 mg q.d., grade ≥3) | TEAE, radiotherapy related ([1]; 250 mg q.d., grade ≥3)
no DLT was reported: DLT [5]
3 (33.3) n (%): IRR ([1]; 250 mg q.d., all grade) | TEAE, treatment related ([1]; 250 mg q.d., grade ≥3)
2/9: Serious TEAE: dehydration ([1]; 250 mg q.d.)
1 (33.3) n (%): Serious TEAE, treatment related ([1]; 100 mg q.d., all grade) | TEAE, radiotherapy related ([1]; 100 mg q.d., all grade) | Serious TEAE, treatment related ([1]; 100 mg q.d., grade ≥3) | TEAE, treatment related ([1]; 100 mg q.d., grade ≥3) | IRR ([1]; 150 mg q.d., all grade) | Serious TEAE ([1]; 150 mg q.d., all grade) | Serious TEAE, treatment related ([1]; 150 mg q.d., all grade) | TEAE, peposertib related ([1]; 150 mg q.d., all grade) | TEAE, radiotherapy related ([1]; 150 mg q.d., all grade) | Serious TEAE ([1]; 150 mg q.d., grade ≥3) | Serious TEAE, treatment related ([1]; 150 mg q.d., grade ≥3) | TEAE, peposertib related ([1]; 150 mg q.d., grade ≥3) | TEAE, radiotherapy related ([1]; 150 mg q.d., grade ≥3)
75%: Increase in bioavailability versus capsules [6]
3 (100.0) n (%): TEAE ([1]; 100 mg q.d., all grade) | TEAE, treatment related ([1]; 100 mg q.d., all grade) | TEAE ([1]; 150 mg q.d., all grade) | TEAE, treatment related ([1]; 150 mg q.d., all grade)
5 (26.3%): Peposertib-related TEAE: nausea ([1]; all dose levels)
7 (77.8) n (%): TEAE ([1]; 250 mg q.d., grade ≥3)
8 (88.9) n (%): TEAE, treatment related ([1]; 250 mg q.d., all grade)
no patients: Patients with complete response (CR) or partial response (PR) (advanced solid tumors [2]) | Patients with complete response (CR) or partial response (PR) (advanced solid tumors [3])
17.2%: Best overall response of stable disease (SD) or non-CR/non-PD (advanced solid tumors [2]; all dose levels)
3 (75.0) n (%): TEAE, radiotherapy related ([1]; 200 mg q.d., all grade)
0 n (%): Immune-related AE ([1]; 100 mg q.d., all grade) | Serious TEAE, peposertib related ([1]; 100 mg q.d., all grade) | Serious TEAE, radiotherapy related ([1]; 100 mg q.d., all grade) | TEAEs leading to death ([1]; 100 mg q.d., all grade) | Treatment-related AE leading to death ([1]; 100 mg q.d., all grade) | IRR ([1]; 100 mg q.d., grade ≥3) | Immune-related AE ([1]; 100 mg q.d., grade ≥3) | Serious TEAE, peposertib related ([1]; 100 mg q.d., grade ≥3) | Serious TEAE, radiotherapy related ([1]; 100 mg q.d., grade ≥3) | TEAE, peposertib related ([1]; 100 mg q.d., grade ≥3) | TEAE, radiotherapy related ([1]; 100 mg q.d., grade ≥3) | TEAEs leading to death ([1]; 100 mg q.d., grade ≥3) | Treatment-related AE leading to death ([1]; 100 mg q.d., grade ≥3) | Immune-related AE ([1]; 150 mg q.d., all grade) | Serious TEAE, peposertib related ([1]; 150 mg q.d., all grade) | Serious TEAE, radiotherapy related ([1]; 150 mg q.d., all grade) | TEAEs leading to death ([1]; 150 mg q.d., all grade) | Treatment-related AE leading to death ([1]; 150 mg q.d., all grade) | IRR ([1]; 150 mg q.d., grade ≥3) | Immune-related AE ([1]; 150 mg q.d., grade ≥3) | Serious TEAE, peposertib related ([1]; 150 mg q.d., grade ≥3) | Serious TEAE, radiotherapy related ([1]; 150 mg q.d., grade ≥3) | TEAEs leading to death ([1]; 150 mg q.d., grade ≥3) | Treatment-related AE leading to death ([1]; 150 mg q.d., grade ≥3) | Serious TEAE, peposertib related ([1]; 200 mg q.d., all grade) | Serious TEAE, radiotherapy related ([1]; 200 mg q.d., all grade) | Serious TEAE, treatment related ([1]; 200 mg q.d., all grade) | TEAEs leading to death ([1]; 200 mg q.d., all grade) | Treatment-related AE leading to death ([1]; 200 mg q.d., all grade) | IRR ([1]; 200 mg q.d., grade ≥3) | Immune-related AE ([1]; 200 mg q.d., grade ≥3) | Serious TEAE, peposertib related ([1]; 200 mg q.d., grade ≥3) | Serious TEAE, radiotherapy related ([1]; 200 mg q.d., grade ≥3) | Serious TEAE, treatment related ([1]; 200 mg q.d., grade ≥3) | TEAE, peposertib related ([1]; 200 mg q.d., grade ≥3) | TEAE, radiotherapy related ([1]; 200 mg q.d., grade ≥3) | TEAE, treatment related ([1]; 200 mg q.d., grade ≥3) | TEAEs leading to death ([1]; 200 mg q.d., grade ≥3) | Treatment-related AE leading to death ([1]; 200 mg q.d., grade ≥3) | TEAEs leading to death ([1]; 250 mg q.d., all grade) | Treatment-related AE leading to death ([1]; 250 mg q.d., all grade) | TEAEs leading to death ([1]; 250 mg q.d., grade ≥3) | Treatment-related AE leading to death ([1]; 250 mg q.d., grade ≥3)
4 (100.0) n (%): TEAE ([1]; 200 mg q.d., all grade) | TEAE, treatment related ([1]; 200 mg q.d., all grade)
6 (66.7) n (%): Serious TEAE ([1]; 250 mg q.d., all grade) | Serious TEAE ([1]; 250 mg q.d., grade ≥3)
2 (66.7) n (%): IRR ([1]; 100 mg q.d., all grade) | Serious TEAE ([1]; 100 mg q.d., all grade) | TEAE, peposertib related ([1]; 100 mg q.d., all grade) | Serious TEAE ([1]; 100 mg q.d., grade ≥3) | TEAE ([1]; 100 mg q.d., grade ≥3) | TEAE ([1]; 150 mg q.d., grade ≥3) | TEAE, treatment related ([1]; 150 mg q.d., grade ≥3)
6 (31.6%): Discontinuation of all study treatments due to AEs ([1]; all dose levels)
